Results taken from patent US11370794B2, “Toll-like receptor antagonist compounds and methods of use” (Dynavax Technologies Corporation, priority 2016, dated 2022).

Molecular target: T1, mouse TLR9 (Mus musculus, UniProt Q9EQU3)
T1 construct: Balb/c mice (Charles River); host or cells: Balb/c mice, in vivo
T1 sequence (Q9EQU3 26-1032): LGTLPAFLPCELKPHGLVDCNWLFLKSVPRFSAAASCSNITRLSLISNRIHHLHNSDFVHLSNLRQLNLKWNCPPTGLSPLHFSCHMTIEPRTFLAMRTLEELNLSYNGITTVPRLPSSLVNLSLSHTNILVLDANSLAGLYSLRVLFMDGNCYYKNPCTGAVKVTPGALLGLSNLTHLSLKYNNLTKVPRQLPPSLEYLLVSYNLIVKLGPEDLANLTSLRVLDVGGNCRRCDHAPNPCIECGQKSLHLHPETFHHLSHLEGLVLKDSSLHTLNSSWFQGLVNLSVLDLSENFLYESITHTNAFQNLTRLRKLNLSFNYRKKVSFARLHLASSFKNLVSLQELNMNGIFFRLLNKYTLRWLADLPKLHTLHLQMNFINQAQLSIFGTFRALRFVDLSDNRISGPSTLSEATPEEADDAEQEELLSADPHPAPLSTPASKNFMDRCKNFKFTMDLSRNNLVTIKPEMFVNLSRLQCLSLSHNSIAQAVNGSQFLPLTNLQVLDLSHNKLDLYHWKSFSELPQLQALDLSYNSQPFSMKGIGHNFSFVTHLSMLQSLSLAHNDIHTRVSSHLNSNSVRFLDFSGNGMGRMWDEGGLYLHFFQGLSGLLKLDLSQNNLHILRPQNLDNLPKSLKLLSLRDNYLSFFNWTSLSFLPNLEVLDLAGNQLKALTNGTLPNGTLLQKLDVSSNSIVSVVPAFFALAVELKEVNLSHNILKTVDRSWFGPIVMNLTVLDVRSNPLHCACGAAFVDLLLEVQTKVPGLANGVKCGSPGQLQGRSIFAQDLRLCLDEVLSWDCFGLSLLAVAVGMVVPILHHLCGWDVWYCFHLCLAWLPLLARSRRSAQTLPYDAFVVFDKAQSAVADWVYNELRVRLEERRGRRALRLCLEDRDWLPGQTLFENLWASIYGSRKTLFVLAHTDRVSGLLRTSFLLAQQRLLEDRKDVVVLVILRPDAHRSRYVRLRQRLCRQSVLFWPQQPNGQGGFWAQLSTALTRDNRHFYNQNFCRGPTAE
Assay: Inhibition of mouse TLR9 in mouse acute challenge model over time (serum IL-12)
Type: in vivo
Details: 5 mg/Kg intra-peritoneal, serum IL-12 two, four and twenty-four hours after agonist
Description: Example B4-a—Inhibition of Mouse TLR9 in Mouse Acute Challenge Model Over Time
When administered a CpG-containing DNA oligonucleotide, mice respond in an acute manner with release of cytokines into the peripheral blood within 6 hours. The addition of an inhibitor against TLR9 will attenuate the response to the DNA oligonucleotide agonist, which can be measured through a reduction in serum cytokines.
Balb/c mice (Charles River). TLR9 agonist 1018 ISS, CpG-containing DNA oligonucleotide. Mouse interleukin (IL)-12p40 ELISA kit (BD Pharmingen Cat. No. 551219 and 554476).
Mice were injected by the intra-peritoneal dosing route with test compound at 5 mg/kg. Following injection of test compound, mice were injected with a TLR9 agonist (a CpG-containing DNA oligonucleotide) by the intra-peritoneal route to a final dose of approximately 2.5 mg/kg. Two, four and twenty-four hours following administration of the DNA oligonucleotide, blood was collected from mice and processed to serum. The serum was tested for the presence of IL-12 using an ELISA kit. The amount of IL-12 produced is a reflection of the amount of TLR9-dependent receptor activity.

Q: For `Cc1ccc(-n2nc3c(N4CCC(C(=O)NCCCN(C)C)CC4)nnc(C)c3c2C)cc1` [Compound No. 5, 1-(3,4-dimethyl-2-(p-tolyl)-2H-pyrazolo[3,4-d]pyridazin-7-yl)-N-(3-(dimethylamino)propyl)piperidine-4-carboxamide], which “inhibition of TLR9 activity in mice over time (FIG. 2)” value is on record?
A: The value was “inhibition of TLR9 activity”.
